Measurements: patent US20150218654A1, “METHODS FOR PREDICTING MULTIPLE MYELOMA TREATMENT RESPONSE” (INSERM (INSTITUT NATIONAL DE LA SANTÉ ET DE LA RE- CHERCHE …, priority 2012, published 2015)

Test system: HMCLs XG-5, XG-6, XG-7, XG-20 and LP1
Conditions: 0.5 μM, 7 days, treated vs control, 5 HMCLs
Method: Control cells were cultured in the same conditions without adding drug. […] Biotinylated cRNA was amplified with a double in vitro transcription and hybridized to the human U133 2.0 plus GeneChips, according to the manufacturer's instructions (Affymetrix, Santa Clara, Calif.). Fluorescence intensities were quantified and analyzed using the GECOS software (Affymetrix). Gene expression data were normalized with the MASS algorithm and analyzed with inventor's bioinformatics platforms-RAGE (http://[…] Amazonia (http://amazonia.[…] /) (36)-or SAM (Significance Analysis of Microarrays) software (37). The statistical significance of differences in overall survival between groups of patients was calculated by the log-rank test. Multivariate analysis was performed using the Cox proportional hazards model. Survival curves were plotted using the Kaplan-Meier method. All these analyses have been done with R.2.10.1 (http://www.r-project.org/) and bioconductor version 2.5. Gene annotation and networks were generated through the use of Ingenuity Pathways Analysis (Ingenuity® Systems, Redwood City, Calif.) (38).

Nc1ncn([C@H]2C[C@H](O)[C@@H](CO)O2)c(=O)n1 [decitabine, 5-Aza-2′-deoxycytidine] was tested, and the “Ratio IFRD1 (202146_at)” value was 0.51, the “Ratio IGF1 (209541_at)” value was 0.43 and the “Ratio IL21R (221658_s_at)” value was 0.50. For the same compound, the “Ratio INHBE (210587_at)” value was 0.55, the “Ratio INSIG1 (201625_s_at)” value was 0.34 and the “Ratio ITGB7 (205718_at)” value was 2.11. For the same compound, the “Ratio KIAA0776 (212633_at)” value was 0.49, the “Ratio KIAA1509 (215343_at)” value was 2.21 and the “Ratio KIF21B (204411_at)” value was 0.53. The “Ratio LOC220930 (229090_at)” value was 0.45, the “Ratio LRP16 (219188_s_at)” value was 0.36 and the “Ratio MAGEA9 (210437_at)” value was 1.68. For the same compound, the “Ratio MAN1A1 (221760_at)” value was 0.43, the “Ratio MANEA (222805_at)” value was 0.51 and the “Ratio MGC15875 (232488_at)” value was 0.55. The “Ratio MIRN21 (224917_at)” value was 1.99, the “Ratio MLLT11 (211071_s_at)” value was 2.53 and the “Ratio MTHFD1L (225520_at)” value was 0.41. The “Ratio MUC1 (207847_s_at)” value was 2.92, the “Ratio MX1 (202086_at)” value was 1.73 and the “Ratio MYLIP (223129_x_at)” value was 2.00. The “Ratio NFE2L1 (214179_s_at)” value was 0.59, the “Ratio NMES1 (223484_at)” value was 23.96 and the “Ratio NMI (203964_at)” value was 1.86. For the same compound, the “Ratio NQO1 (201468_s_at)” value was 2.15, the “Ratio OAS1 (205552_s_at)” value was 1.65 and the “Ratio OPN1SW (229549_at)” value was 0.40. For the same compound, the “Ratio PARP12 (218543_s_at)” value was 1.92, the “Ratio PCK2 (202847_at)” value was 0.47 and the “Ratio PGM3 (221788_at)” value was 0.49. For the same compound, the “Ratio PHGDH (201397_at)” value was 0.36, the “Ratio PLAC1 (219702_at)” value was 0.42 and the “Ratio PPAPDC1B (223569_at)” value was 0.42. For the same compound, the “Ratio PSCDBP (209606_at)” value was 0.48, the “Ratio PSPH (205194_at)” value was 0.38 and the “Ratio RECQL (213878_at)” value was 0.44. For the same compound, the “Ratio RPL37 (224763_at)” value was 0.35, the “Ratio SAMD9 (228531_at)” value was 2.06 and the “Ratio SCD (200831_s_at)” value was 0.39. For the same compound, the “Ratio SEC24D (202375_at)” value was 0.31, the “Ratio SEC63 (201915_at)” value was 0.51 and the “Ratio SEL1L (202061_s_at)” value was 0.56. For the same compound, the “Ratio SESN2 (223195_s_at)” value was 0.47, the “Ratio SFN (33322_i_at)” value was 4.34 and the “Ratio SLAMF7 (222838_at)” value was 0.51. The “Ratio SLC1A4 (209610_s_at)” value was 0.54, the “Ratio SLC1A5 (208916_at)” value was 0.40 and the “Ratio SLC7A11 (209921_at)” value was 0.41. For the same compound, the “Ratio SNTB1 (226438_at)” value was 0.36, the “Ratio SP110 (208012_x_at)” value was 2.11 and the “Ratio SSR3 (217790_s_at)” value was 0.40. The “Ratio STAT1 (209969_s_at)” value was 2.55, the “Ratio STCH (202558_s_at)” value was 0.47 and the “Ratio STK17A (202693_s_at)” value was 2.52. For the same compound, the “Ratio SULT1A3 (210580_x_at)” value was 2.52, the “Ratio TBC1D16 (222116_s_at)” value was 0.70 and the “Ratio TKTL1 (214183_s_at)” value was 85.24. The “Ratio TMEM39A (222690_s_at)” value was 0.46, the “Ratio TMEM49 (1569003_at)” value was 2.33 and the “Ratio TPST2 (204079_at)” value was 2.20. For the same compound, the “Ratio TRIB3 (218145_at)” value was 0.41, the “Ratio TSC22D3 (208763_s_at)” value was 0.53 and the “Ratio TUBA2 (210527_x_at)” value was 2.50. For the same compound, the “Ratio TUBA3 (209118_s_at)” value was 2.23, the “Ratio TUBB2 (204141_at)” value was 5.07 and the “Ratio TUBE1 (226181_at)” value was 0.38. For the same compound, the “Ratio ZNF275 (225382_at)” value was 0.35 and the “Ratio ZNF706 (227132_at)” value was 0.49.
